PMC5853558, “De novo identification of lipid II binding lipopeptides with antibacterial activity against vancomycin-resistant bacteria” (Chemical Science, 2017)
Values after ≈ are worked out from the molar mass of the structure shown. *1 amine or outer side, *2 acyl side, *3 side chain or, on linkers, in order; H or OH if unused. Where a SMILES comes first, the peptide text is derived from it. Bridges are numbered along the chain shown (N, C = ends). [ ]: non-standard residue; d: D form. The star is where a group is joined. TBMB = c1c(C[*:1])cc(C[*:3])cc1C[*:2]; NHDecyl = CCCCCCCCCCN*

tested on: M. luteus (NCTC2665); assay: microbe, parasite or virus in culture; format: cell-based, Micrococcus luteus; settings: Supplemental table S6, lipidated phage display hits; n.a. = not active, highest tested conc 64 µg/ml
Experimental: Section 4 Biological and biochemical experiments
4.1 Minimum inhibitory concentration assay
MIC values were determined by using the broth microdilution method. Peptides were dissolved first in DMSO and diluted with broth so that the final peptide concentration was 1024 µg/ml and the DMSO concentration was 4%. Peptide serial dilutions were made in TSB in a polypropylene 96-wells plate using 50 µl volumes. An overnight culture of the organism of interest was diluted to and OD600 of 0.01 and grown until they reach 0.5. The culture was then diluted to 1 x 10^6 CFU/ml and 50 µl of this suspension was added to each well. The highest concentrations were then 512 µg/ml peptide and 2% DMSO. The plates were incubated at the preferred growth temperature of the organism that was used and 250 rpm. […] When […]
determining the MICs of the lipidated peptides, the lipopeptides were first dissolved in DMSO and diluted with TSB so that the peptide concentration was 128 µg/ml and the DMSO concentration was 4%. After inoculation the highest peptide concentration evaluated was 64 µg/ml and the DMSO concentration was 2%. A DMSO control was tested for each strain to ensure the DMSO did not affect the growth of the particular strain. […]

| Structure (SMILES) | MIC M. luteus [mg/L] |
| --- | --- |
| CCCCCCCCCCNC(=O)CNC(=O)[C@@H]1CSCc2cc3cc(c2)CSC[C@H](NC(=O)[C@H](Cc2ccc(O)cc2)NC(=O)[C@H](Cc2c[nH]c4ccccc24)NC(=O)[C@H](CC(=O)O)NC(=O)[C@H](C(C)C)NC(=O)[C@@H]2CCCN2C(=O)[C@H](Cc2ccc(O)cc2)NC(=O)[C@@H](NC(=O)[C@H](C)N)CSC3)C(=O)N[C@@H](CC(C)C)C(=O)N[C@@H](Cc2ccccc2)C(=O)N[C@@H](CCC(N)=O)C(=O)N[C@@H]([C@@H](C)O)C(=O)N[C@@H](C(C)C)C(=O)N[C@@H](CC(=O)O)C(=O)N1 [Peptide P6-C10] (H-ACYPVDWYCLFQTVDCG-NHDecyl; linker 2-9-16 via TBMB; N-terminus assumed) | 2 (≈ 0.894 µM) |

same assay, conditions: Supplemental table S8; non-lipidated P8 variants; broth microdilution, highest tested 512 µg/ml

| Structure (SMILES) | MIC of Ala scan of P8-D against M. luteus [mg/L] |
| --- | --- |
| CC(C)C[C@H]1NC(=O)[C@@H](C)NC(=O)[C@@H](CO)NC(=O)[C@@H](CCC(N)=O)NC(=O)[C@@H](CC(C)C)NC(=O)[C@@H](CC(C)C)NC(=O)[C@H](NC(=O)[C@@H](C)N)CSCc2cc3cc(c2)CSC[C@@H](NC1=O)C(=O)N1CCC[C@@H]1C(=O)N[C@H](Cc1ccc(O)cc1)C(=O)N[C@H](CO)C(=O)N[C@H]([C@H](C)O)C(=O)N[C@H](Cc1c[nH]cn1)C(=O)N[C@H](CCCNC(=N)N)C(=O)N[C@@H](C(=O)NCC(N)=O)CSC3 [Peptide P8-D-L7A] (H-[dA][dC][dL][dL][dQ][dS][dA][dL][dC][dP][dY][dS][dT][dH][dR][dC]G-NH2; linker 2-9-16 via TBMB; N-terminus assumed) | 512 |
| CC(C)C[C@H]1NC(=O)[C@H](NC(=O)[C@@H](C)N)CSCc2cc3cc(c2)CSC[C@@H](NC(=O)[C@@H](CC(C)C)NC(=O)[C@@H](CC(C)C)NC(=O)[C@@H](CO)NC(=O)[C@@H](CCC(N)=O)NC(=O)[C@@H](CC(C)C)NC1=O)C(=O)N1CCC[C@@H]1C(=O)N[C@H](Cc1ccc(O)cc1)C(=O)N[C@H](CO)C(=O)N[C@H]([C@H](C)O)C(=O)N[C@H](Cc1c[nH]cn1)C(=O)N[C@H](C)C(=O)N[C@@H](C(=O)NCC(N)=O)CSC3 [Peptide P8-D-R15A] (H-[dA][dC][dL][dL][dQ][dS][dL][dL][dC][dP][dY][dS][dT][dH][dA][dC]G-NH2; linker 2-9-16 via TBMB; N-terminus assumed) | 128 to 256 |
| CC(C)C[C@H]1NC(=O)[C@H](NC(=O)[C@@H](C)N)CSCc2cc3cc(c2)CSC[C@@H](NC(=O)[C@@H](CC(C)C)NC(=O)[C@@H](CC(C)C)NC(=O)[C@@H](CO)NC(=O)[C@@H](CCC(N)=O)NC(=O)[C@@H](CC(C)C)NC1=O)C(=O)N1CCC[C@@H]1C(=O)N[C@H](Cc1ccc(O)cc1)C(=O)N[C@H](CO)C(=O)N[C@H](C)C(=O)N[C@H](Cc1c[nH]cn1)C(=O)N[C@H](CCCNC(=N)N)C(=O)N[C@@H](C(=O)NCC(N)=O)CSC3 [Peptide P8-D-T13A] (H-[dA][dC][dL][dL][dQ][dS][dL][dL][dC][dP][dY][dS][dA][dH][dR][dC]G-NH2; linker 2-9-16 via TBMB; N-terminus assumed) | 512 |
| CC(C)C[C@H]1NC(=O)[C@H](NC(=O)[C@@H](C)N)CSCc2cc3cc(c2)CSC[C@@H](NC(=O)[C@@H](CC(C)C)NC(=O)[C@@H](CC(C)C)NC(=O)[C@@H](CO)NC(=O)[C@@H](CCC(N)=O)NC(=O)[C@@H](C)NC1=O)C(=O)N1CCC[C@@H]1C(=O)N[C@H](Cc1ccc(O)cc1)C(=O)N[C@H](CO)C(=O)N[C@H]([C@H](C)O)C(=O)N[C@H](Cc1c[nH]cn1)C(=O)N[C@H](CCCNC(=N)N)C(=O)N[C@@H](C(=O)NCC(N)=O)CSC3 [Peptide P8-D-L4A] (H-[dA][dC][dL][dA][dQ][dS][dL][dL][dC][dP][dY][dS][dT][dH][dR][dC]G-NH2; linker 2-9-16 via TBMB; N-terminus assumed) | > 512 |
| CC(C)C[C@H]1NC(=O)[C@H](NC(=O)[C@@H](C)N)CSCc2cc3cc(c2)CSC[C@@H](NC(=O)[C@@H](CC(C)C)NC(=O)[C@@H](CC(C)C)NC(=O)[C@@H](CO)NC(=O)[C@@H](CCC(N)=O)NC(=O)[C@@H](CC(C)C)NC1=O)C(=O)N1CCC[C@@H]1C(=O)N[C@H](Cc1ccc(O)cc1)C(=O)N[C@H](CO)C(=O)N[C@H]([C@H](C)O)C(=O)N[C@H](Cc1c[nH]cn1)C(=O)N[C@H](CCCNC(=N)N)C(=O)N[C@@H](C(=O)NCC(N)=O)CSC3 [Peptide P8] (H-[dA][dC][dL][dL][dQ][dS][dL][dL][dC][dP][dY][dS][dT][dH][dR][dC]G-NH2; linker 2-9-16 via TBMB; N-terminus assumed) | 128 |
| CC(C)C[C@H]1NC(=O)[C@H](NC(=O)[C@@H](C)N)CSCc2cc3cc(c2)CSC[C@@H](NC(=O)[C@@H](CC(C)C)NC(=O)[C@@H](CC(C)C)NC(=O)[C@@H](CO)NC(=O)[C@@H](CCC(N)=O)NC(=O)[C@@H](CC(C)C)NC1=O)C(=O)N[C@H](C)C(=O)N[C@H](Cc1ccc(O)cc1)C(=O)N[C@H](CO)C(=O)N[C@H]([C@H](C)O)C(=O)N[C@H](Cc1c[nH]cn1)C(=O)N[C@H](CCCNC(=N)N)C(=O)N[C@@H](C(=O)NCC(N)=O)CSC3 [Peptide P8-D-P10A] (H-[dA][dC][dL][dL][dQ][dS][dL][dL][dC][dA][dY][dS][dT][dH][dR][dC]G-NH2; linker 2-9-16 via TBMB; N-terminus assumed) | 128 |
| CC(C)C[C@H]1NC(=O)[C@@H](CC(C)C)NC(=O)[C@H](NC(=O)[C@@H](C)N)CSCc2cc3cc(c2)CSC[C@@H](NC(=O)[C@@H](CC(C)C)NC(=O)[C@@H](CC(C)C)NC(=O)[C@@H](CO)NC(=O)[C@@H](C)NC1=O)C(=O)N1CCC[C@@H]1C(=O)N[C@H](Cc1ccc(O)cc1)C(=O)N[C@H](CO)C(=O)N[C@H]([C@H](C)O)C(=O)N[C@H](Cc1c[nH]cn1)C(=O)N[C@H](CCCNC(=N)N)C(=O)N[C@@H](C(=O)NCC(N)=O)CSC3 [Peptide P8-D-Q5A] (H-[dA][dC][dL][dL][dA][dS][dL][dL][dC][dP][dY][dS][dT][dH][dR][dC]G-NH2; linker 2-9-16 via TBMB; N-terminus assumed) | > 512 |
| CC(C)C[C@H]1NC(=O)[C@@H](C)NC(=O)[C@@H](CCC(N)=O)NC(=O)[C@@H](CC(C)C)NC(=O)[C@@H](CC(C)C)NC(=O)[C@H](NC(=O)[C@@H](C)N)CSCc2cc3cc(c2)CSC[C@@H](NC(=O)[C@@H](CC(C)C)NC1=O)C(=O)N1CCC[C@@H]1C(=O)N[C@H](Cc1ccc(O)cc1)C(=O)N[C@H](CO)C(=O)N[C@H]([C@H](C)O)C(=O)N[C@H](Cc1c[nH]cn1)C(=O)N[C@H](CCCNC(=N)N)C(=O)N[C@@H](C(=O)NCC(N)=O)CSC3 [Peptide P8-D-S6A] (H-[dA][dC][dL][dL][dQ][dA][dL][dL][dC][dP][dY][dS][dT][dH][dR][dC]G-NH2; linker 2-9-16 via TBMB; N-terminus assumed) | 64 to 128 |

same assay, conditions: Table 1; non-lipidated bicyclic peptides; broth microdilution in TSB, 16 h, read visually; n.a. = no activity, highest tested concentration 512 μg mL^–1

| Structure (SMILES) | MIC against M. luteus |
| --- | --- |
| CC(C)C[C@H]1NC(=O)[C@H](NC(=O)[C@@H](C)N)CSCc2cc3cc(c2)CSC[C@@H](NC(=O)[C@@H](CC(C)C)NC(=O)[C@@H](CC(C)C)NC(=O)[C@@H](CO)NC(=O)[C@@H](CCC(N)=O)NC(=O)[C@@H](CC(C)C)NC1=O)C(=O)N1CCC[C@@H]1C(=O)N[C@H](Cc1ccc(O)cc1)C(=O)N[C@H](CO)C(=O)N[C@H]([C@H](C)O)C(=O)N[C@H](Cc1c[nH]cn1)C(=O)N[C@H](CCCNC(=N)N)C(=O)N[C@@H](C(=O)NCC(N)=O)CSC3 [Peptide P8] (H-[dA][dC][dL][dL][dQ][dS][dL][dL][dC][dP][dY][dS][dT][dH][dR][dC]G-NH2; linker 2-9-16 via TBMB; N-terminus assumed) | 64–128 μg mL^–1 |
| CC[C@H](C)[C@@H]1NC(=O)[C@@H]2CSCc3cc(cc(c3)CSC[C@@H](C(=O)NCC(N)=O)NC(=O)[C@H](CCCNC(=N)N)NC(=O)[C@H]([C@@H](C)CC)NC(=O)[C@H](CC(N)=O)NC(=O)[C@H](C)NC(=O)[C@H](CO)NC1=O)CSC[C@H](NC(=O)[C@H](C)N)C(=O)N[C@@H](CCCNC(=N)N)C(=O)N1CCC[C@H]1C(=O)N[C@@H](CCC(N)=O)C(=O)N[C@@H](CCCCN)C(=O)N[C@@H](Cc1ccccc1)C(=O)N[C@@H](CC(N)=O)C(=O)N2 [Peptide P4] (H-ACRPQKFNCISANIRCG-NH2; linker 2-9-16 via TBMB; N-terminus assumed) | 64 μg mL^–1 |
